Assay results published in patent publication US12697315B2, “Treatment for interstitial lung disease” (United Therapeutics Corporation, priority 2020, dated 2026).

What was measured:
[1] = tested on: patients with interstitial lung disease and pulmonary hypertension; test: Adverse events and serious adverse events, INCREASE; settings: 16-week trial
From the text: (§1) Safety assessments consisted of the development of AEs, vital signs, clinical laboratory parameters, ECG parameters, hospitalizations due to cardiopulmonary indications, exacerbations of underlying lung disease, and oxygenation.
(§2) Safety end points included adverse events, abnormal laboratory results, oxygenation as measured by pulse oximetry (Spo2) and supplemental oxygen requirement, changes in pulmonary function test results, hospitalization for a cardiopulmonary indication, and investigator-reported exacerbations of underlying lung disease, defined as acute, clinically significant respiratory deterioration characterized by evidence of new widespread alveolar abnormality.

[2] = tested on: NT-proBNP; test: Plasma NT-proBNP level, INCREASE; assay type: in vivo, human; settings: for NT-proBNP treatment ratio (ratio of ratios between treatment groups): vs placebo, week 16
Protocol: We enrolled patients with interstitial lung disease and pulmonary hypertension (documented by right heart catheterization) in a multicenter, randomized, double-blind, placebo-controlled, 16-week trial. Patients were assigned in a 1:1 ratio to receive inhaled treprostinil, administered by means of an ultrasonic, pulsed-delivery nebulizer in up to 12 breaths (total, 72 μg) four times daily, or placebo. The primary efficacy end point was the difference between the two treatment groups in the change in peak 6-minute walk distance from baseline to week 16. Secondary end points included the change in N-terminal pro-B-type natriuretic peptide (NT-proBNP) level at week 16 and the time to clinical worsening.
The 6-minute walk test was performed and laboratory data were obtained at baseline and at weeks 4, 8, 12, and 16, or at the time of early discontinuation of treprostinil or placebo. Each 6-minute walk test was performed 10 to 60 minutes after the most recent dose of active drug or placebo, which is the time of peak plasma treprostinil exposure. A trough test was performed at week 15 at least 4 hours after the participant received a dose of treprostinil or placebo and at least 24 hours before the week 16 test. Pulse oximetry was performed immediately before, during, and after each 6-minute walk test. Measurement of N-terminal pro-B-type natriuretic peptide (NT-proBNP) levels and pulmonary function tests were performed at baseline and at weeks 8 and 16 (or at early discontinuation) after the patients recovered from the 6-minute walk test. The St. George's Respiratory Questionnaire (SGRQ), a quality-of-life measure, was completed at baseline and week 16 or at the time of early discontinuation.
The primary end point of the trial was the difference between the two groups in the change in peak 6-minute walk distance from baseline to week 16. Secondary efficacy end points were analyzed in the following hierarchical testing order: the change in NT-proBNP level from baseline to week 16, the time to clinical worsening, the change in 6-minute walk distance at peak plasma treprostinil level at week 12, and the change in 6-minute walk distance at trough treprostinil level at week 15. The time to clinical worsening was evaluated from the time of randomization until the patient's withdrawal from the trial and was defined as the time until the occurrence of any one of the following events: hospitalization for a cardiopulmonary indication, a decrease in 6-minute walk distance greater than 15% from baseline that was directly related to the disease under study at two consecutive visits and at least 24 hours apart, death from any cause, or lung transplantation.

[3] = tested on: patients with interstitial lung disease and pulmonary hypertension; test: Exacerbations of underlying lung disease, 16-week placebo-controlled trial of inhaled treprostinil (INCREASE); assay type: in vivo, human
Protocol: Subjects having underlying lung disease were treated with inhaled treprostinil over 16 weeks. Subjects initiated inhaled treprostinil or placebo at a dose of 3 breaths (18 mcg) 4 times daily (during waking hours). Study drug doses were maximized throughout the study. Dose escalations (additional 1 breath 4 times daily) could occur up to every 3 days with a target dosing regimen of 9 breaths (54 mcg) 4 times daily and a maximum dose of 12 breaths (72 mcg) 4 times daily, as clinically tolerated. Subjects were assessed during Screening and Baseline to determine eligibility for the study. Once eligible, 5 Treatment Phase visits to the clinic were required at Week 4, Week 8, Week 12, Week 15, and Week 16 (final study visit). An Early Termination (ET) Visit was conducted for subjects who discontinued prior to Week 16; all assessments planned for the final Week 16 Visit were conducted during the ET Visit, if applicable. Subjects were contacted at least weekly by telephone or email to assess tolerance to study drug, adverse events (AEs), and changes to concomitant medications.

[4] = tested on: patients with interstitial lung disease and pulmonary hypertension; settings: human, in vivo, 16 weeks
From the text: as §1, §2

Structure (SMILES): CCCCC[C@H](O)CC[C@@H]1[C@H]2Cc3cccc(OCC(=O)O)c3C[C@H]2C[C@H]1O [Inhaled treprostinil, treprostinil]
- patients with serious adverse events [1]: patients (23.3%)
- Adverse event: Cough ([1]; N = 163): 71 (43.6) no. of patients (%)
- Adverse event: Diarrhea ([1]; N = 163): 22 (13.5) no. of patients (%)
- Adverse event: Dizziness ([1]; N = 163): 30 (18.4) no. of patients (%)
- Adverse event: Dyspnea ([1]; N = 163): 41 (25.2) no. of patients (%)
- Adverse event: Fatigue ([1]; N = 163): 23 (14.1) no. of patients (%)
- Adverse event: Headache ([1]; N = 163): 45 (27.6) no. of patients (%)
- Adverse event: NT-proBNP increased ([1]; N = 163): 9 (5.5) no. of patients (%)
- Adverse event: Nausea ([1]; N = 163): 25 (15.3) no. of patients (%)
- Adverse event: Oropharyngeal pain ([1]; N = 163): 18 (11.0) no. of patients (%)
- Adverse event: Throat irritation ([1]; N = 163): 20 (12.3) no. of patients (%)
- Any Serious Event, number of patients ([1]; N = 163): 38 patients
- Patients with ≥1 adverse event ([1]; N = 163): 152 (93.3) no. (%)
- Patients with ≥1 serious adverse event ([1]; N = 163): 38 (23.3) no. (%)
- Serious adverse event: Abdominal pain ([1]; N = 163): 0 n
- Serious adverse event: Acute kidney injury ([1]; N = 163): 0 n
- Serious adverse event: Acute myocardial infarction ([1]; N = 163): 1 n
- Serious adverse event: Acute respiratory failure ([1]; N = 163): 4 n
- Serious adverse event: Acute right ventricular failure ([1]; N = 163): 1 n
- Serious adverse event: Arrhythmia ([1]; N = 163): 1 n
- Serious adverse event: Aspiration ([1]; N = 163): 0 n
- Serious adverse event: Atrial fibrillation ([1]; N = 163): 0 n
- Serious adverse event: B-cell lymphoma ([1]; N = 163): 1 n
- Serious adverse event: Bradycardia ([1]; N = 163): 0 n
- Serious adverse event: Bronchitis ([1]; N = 163): 2 n
- Serious adverse event: Bronchopulmonary aspergillosis ([1]; N = 163): 1 n
- Serious adverse event: Cardiac arrest ([1]; N = 163): 1 n
- Serious adverse event: Cardiac failure ([1]; N = 163): 0 n
- Serious adverse event: Cardiac failure acute ([1]; N = 163): 0 n
- Serious adverse event: Cardiac failure congestive ([1]; N = 163): 1 n
- Serious adverse event: Cardiogenic shock ([1]; N = 163): 0 n
- Serious adverse event: Cardiopulmonary failure ([1]; N = 163): 1 n
- Serious adverse event: Cellulitis ([1]; N = 163): 1 n
- Serious adverse event: Cerebral haemorrhage ([1]; N = 163): 1 n
- Serious adverse event: Chest pain ([1]; N = 163): 1 n
- Serious adverse event: Chronic obstructive pulmonary disease ([1]; N = 163): 2 n
- Serious adverse event: Chronic respiratory failure ([1]; N = 163): 2 n
- Serious adverse event: Chronic right ventricular failure ([1]; N = 163): 0 n
- Serious adverse event: Coagulopathy ([1]; N = 163): 0 n
- Serious adverse event: Combined pulmonary fibrosis and emphysema ([1]; N = 163): 1 n
- Serious adverse event: Cor pulmonale ([1]; N = 163): 1 n
- Serious adverse event: Cor pulmonale acute ([1]; N = 163): 0 n
- Serious adverse event: Coronary artery disease ([1]; N = 163): 0 n
- Serious adverse event: Death with unknown cause ([1]; N = 163): 3 n
- Serious adverse event: Disease progression ([1]; N = 163): 0 n
- Serious adverse event: Dyspnoea ([1]; N = 163): 3 n
- Serious adverse event: Epistaxis ([1]; N = 163): 0 n
- Serious adverse event: Fluid overload ([1]; N = 163): 0 n
- Serious adverse event: Haematochezia ([1]; N = 163): 0 n
- Serious adverse event: Haemoptysis ([1]; N = 163): 1 n
- Serious adverse event: Hyperglycaemia ([1]; N = 163): 1 n
- Serious adverse event: Hypertension ([1]; N = 163): 0 n
- Serious adverse event: Hypervolaemia ([1]; N = 163): 1 n
- Serious adverse event: Hypoxia ([1]; N = 163): 1 n
- Serious adverse event: Idiopathic pulmonary fibrosis ([1]; N = 163): 1 n
- Serious adverse event: Influenza ([1]; N = 163): 1 n
- Serious adverse event: Interstitial lung disease ([1]; N = 163): 3 n
- Serious adverse event: Left ventricular failure ([1]; N = 163): 1 n
- Serious adverse event: Lumbar vertebral fracture ([1]; N = 163): 0 n
- Serious adverse event: Metabolic encephalopathy ([1]; N = 163): 0 n
- Serious adverse event: Pain ([1]; N = 163): 0 n
- Serious adverse event: Pain in extremity ([1]; N = 163): 1 n
- Serious adverse event: Pneumonia ([1]; N = 163): 1 n
- Serious adverse event: Pneumonia influenzal ([1]; N = 163): 0 n
- Serious adverse event: Pneumothorax ([1]; N = 163): 1 n
- Serious adverse event: Post procedural infection ([1]; N = 163): 0 n
- Serious adverse event: Presyncope ([1]; N = 163): 0 n
- Serious adverse event: Pulmonary congestion ([1]; N = 163): 0 n
- Serious adverse event: Pulmonary hypertension ([1]; N = 163): 1 n
- Serious adverse event: Pulmonary oedema ([1]; N = 163): 1 n
- Serious adverse event: Respiratory distress ([1]; N = 163): 0 n
- Serious adverse event: Respiratory failure ([1]; N = 163): 2 n
- Serious adverse event: Right ventricular failure ([1]; N = 163): 1 n
- Serious adverse event: Scleroderma ([1]; N = 163): 0 n
- Serious adverse event: Sepsis ([1]; N = 163): 0 n
- Serious adverse event: Syncope ([1]; N = 163): 1 n
- Serious adverse event: Tachycardia ([1]; N = 163): 1 n
- Serious adverse event: Transplant dysfunction ([1]; N = 163): 0 n
- Serious adverse event: Upper respiratory tract infection ([1]; N = 163): 2 n
- Serious adverse event: Urosepsis ([1]; N = 163): 0 n
- Total no. of adverse events ([1]; N = 163): 890
- Total no. of adverse events leading to withdrawal of treprostinil or placebo ([1]; N = 163): 47
- Total no. of serious adverse events ([1]; N = 163): 53
- patients with serious adverse events ([1]; listed as inhaled treprostinil): 23.3%
- Change in plasma concentration of NT-proBNP from baseline to wk 16, Mean (±SD) change ([2]; 156 patients): -396.35 ± 1904.90 pg/mL
- Change in plasma concentration of NT-proBNP from baseline to wk 16, Median ([2]; 156 patients): -22.65 pg/mL
- reduction in NT-proBNP compared to placebo ([2]; Week 16): 42%
- reduction in NT-proBNP levels from baseline ([2]; Week 16): 15%
- NT-proBNP treatment ratio (ratio of ratios between treatment groups) ([2]; listed as Inhaled Treprostinil): ±0.58 ± 0.06
- NT-proBNP treatment ratio (ratio of ratios between treatment groups) ([2]; listed as inhaled treprostinil): 0.58
- NT-proBNP, Ratio to baseline ([2]; wk 16, LS mean of log-transformed data ± SE): 0.85 ± 0.06
- patients with exacerbations of underlying lung disease ([3]; over the 16-week treatment period): 26.4%
- hazard ratio, exacerbation of underlying lung disease ([3]; vs placebo, 16 weeks): 0.66
- reduction in risk of an exacerbation of underlying lung disease ([3]; vs placebo, 16 weeks): 34%
- Serious adverse event: Rhinovirus infection [4]: 1 n
